According to publication PMC4377999, “Kalkitoxin Inhibits Angiogenesis, Disrupts Cellular Hypoxic Signaling, and Blocks Mitochondrial Electron Transport in Tumor Cells” (Marine Drugs, 2015):

Target: T1, mitochondrial electron transport chain complex I (NADH-ubiquinone oxidoreductase) (Homo sapiens, UniProt O75251+O75306+P03886)
T1 construct: gene NDUFS2; native multi-subunit complex in digitonin-permeabilized T47D cells
Experiment: oxygen consumption (Clark-type electrode) in permeabilized T47D cells with malate/pyruvate, succinate bypass; […]
Assay type: cell-based

## C=C[C@@H]1CSC(C[C@@H](C)[C@@H](C)C[C@H](C)CCN(C)C(=O)[C@H](C)CC)=N1 [kalkitoxin]
  oxygen consumption (Clark-type electrode) in permeabilized T47D cells with malat: kalkitoxin potently suppresses mitochondrial respiration in tumor cells by selectively inhibiting ETC complex I
